Like-named read-outs stand apart in the source and are kept apart here.
Assays:
[1] = Human pharmacokinetics predicted from preclinical data; settings: in humans, based on preclinical data
[2] = Phase 1 clinical trial: COMPOUND A plasma pharmacokinetics; format: in vivo, human; settings: for CL/F (apparent clearance) / Cmax / AUC: geometric mean (CV %); for Tmax / Cmax / AUC: human, plasma; for AUC: read-out: AUC24
Method: The patients in this trial are intolerant of or resistant to standard therapy.
COMPOUND A was orally administered at 2 mg, 5 mg, 8 mg, and 15 mg QD alone or 5 mg QD in combination with 500 mg of fulvestrant.
Preliminary pharmacokinetic parameters are available from 23 participants following the 1st oral dose (Day 1 of Cycle 1) and at steady state (Day 15 of Cycle 1) and presented in Table 1.
1S COMPOUND A was orally administered at 1 mg, 2 mg, 5 mg, 8 mg, and 15 mg QD alone or 5 mg QD in combination with 500 mg of fulvestrant.
A total of 29 participants had evaluable PK concentration data in Part 1A and Part 1B, at the time of the data cut-off date of 30 Sep. 2022. Of these participants, two (2) in the 1 mg QD dose group were excluded from Cycle 1 Day 15 summaries due to either dose interruption impacting PK analysis or sample collection after the data cut-off date.
Participants were to swallow COMPOUND A whole tablets and were not to manipulate or chew the study intervention prior to swallowing. COMPOUND A was administered QD by mouth for all cohorts on a continuous basis. The once daily dose was administered in 24±3 hour intervals (i.e., no less than 21 hours and no more than 27 hours apart). All cycles were 28 days in length.

[3] = as of 23 Mar. 2022, 31 patients dosed

COc1ccccc1S(=O)(=O)Nc1noc2cc(Cn3cccn3)cc(OC)c12 [COMPOUND A, 2-Methoxy-N-{4-methoxy-6-[(1H-pyrazol-1-yl)methyl]-1,2-benzoxazol-3-yl}benzene-1-sulfonamide]
COVID-19, all-causality SAE, by patient frequency (as of 23 Mar. 2022): 2
COVID-19, all-causality Grade 3 TEAE [3]: 3.2%
Pneumonitis, Grade 5 TEAE [3]: 3.2%
Pneumonitis, Grade 5 treatment-related AE [3]: 3.2%
Urinary tract infection, all-causality Grade 3 TEAE [3]: 3.2%
MTD (cut-off 30 Sep. 2022): not identified
Alanine aminotransferase increased, all-causality Grade 3 TEAE (human, in vivo): 6.5%
Alanine aminotransferase increased, all-causality TEAE, any grade (human, in vivo): 25.8%
Anaphylactic reaction, all-causality Grade 3 TEAE (human, in vivo): 3.2%
Anemia, Grade 3 treatment-related AE (human, in vivo): 16.1%
Anemia, TRAE, any grade (human, in vivo): 54.8%
Anemia, all-causality Grade 3 TEAE (human, in vivo): 16.1%
Anemia, all-causality TEAE, any grade (human, in vivo): 54.8%
Aspartate aminotransferase increased, all-causality TEAE, any grade (human, in vivo): 29.0%
Bone pain, all-causality SAE, by patient frequency (human, in vivo): 1
Diarrhea, Grade 3 treatment-related AE (human, in vivo): 3.2%
Diarrhea, TRAE, any grade (human, in vivo): 29.0%
Diarrhea, all-causality Grade 3 TEAE (human, in vivo): 3.2%
Diarrhea, all-causality TEAE, any grade (human, in vivo): 35.5%
Dysgeusia, TRAE, any grade (human, in vivo): 80.6%
Dysgeusia, all-causality TEAE, any grade (human, in vivo): 83.9%
Dysphagia, all-causality SAE, by patient frequency (human, in vivo): 1
Embolism, Grade 3 treatment-related AE (human, in vivo): 3.2%
Embolism, all-causality Grade 3 TEAE (human, in vivo): 3.2%
Embolism, all-causality SAE, by patient frequency (human, in vivo): 1
Fatigue, all-causality Grade 3 TEAE (human, in vivo): 3.2%
Fatigue, all-causality TEAE, any grade (human, in vivo): 25.8%
Flank pain, all-causality Grade 3 TEAE (human, in vivo): 3.2%
Flank pain, all-causality SAE, by patient frequency (human, in vivo): 1
Grade 4 treatment-related AEs (human, in vivo): no Grade 4 treatment-related AEs
Haematuria, all-causality Grade 3 TEAE (human, in vivo): 3.2%
Haematuria, all-causality SAE, by patient frequency (human, in vivo): 1
Hypercalcaemia, Grade 4 TEAE (human, in vivo): 3.2%
Hypotension, all-causality Grade 3 TEAE (human, in vivo): 6.5%
Hypotension, all-causality SAE, by patient frequency (human, in vivo): 2
Hypotension, treatment-related SAE, by patient frequency (human, in vivo): 1
Lymphocyte count decreased, Grade 3 treatment-related AE (human, in vivo): 3.2%
Lymphocyte count decreased, all-causality Grade 3 TEAE (human, in vivo): 6.5%
Neutrophil count decreased/Neutropenia, Grade 3 treatment-related AE (human, in vivo): 29.1%
Neutrophil count decreased/Neutropenia, TRAE, any grade (human, in vivo): 51.6%
Neutrophil count decreased/Neutropenia, all-causality Grade 3 TEAE (human, in vivo): 29.1%
Neutrophil count decreased/Neutropenia, all-causality TEAE, any grade (human, in vivo): 51.6%
Platelet count decreased, TRAE, any grade (human, in vivo): 22.6%
Platelet count decreased, all-causality TEAE, any grade (human, in vivo): 22.6%
Pneumonitis, all-causality SAE, by patient frequency (human, in vivo): 1
Pneumonitis, treatment-related SAE, by patient frequency (human, in vivo): 1
Pulmonary embolism, all-causality Grade 3 TEAE (human, in vivo): 3.2%
Thrombocytopenia, Grade 3 treatment-related AE (human, in vivo): 3.2%
Thrombocytopenia, all-causality Grade 3 TEAE (human, in vivo): 3.2%
White blood cell count decreased, Grade 3 treatment-related AE (human, in vivo): 9.7%
White blood cell count decreased, TRAE, any grade (human, in vivo): 29.0%
White blood cell count decreased, all-causality Grade 3 TEAE (human, in vivo): 9.7%
White blood cell count decreased, all-causality TEAE, any grade (human, in vivo): 29.0%
all-causality SAEs, Total Number of Cases (human, in vivo): 9
all-causality SAEs, Total Number of Subjects (human, in vivo): 8
all-causality SAEs, Total Number of events (human, in vivo): 10
patients with at least one TEAE (human, in vivo): 31 patients
patients with at least one treatment-related adverse event (TRAE) (human, in vivo): 31 patients
severity of TRAEs (human, in vivo): majority of TRAEs were G1-2
treatment-related SAEs, Total Number of Cases (human, in vivo): 2
treatment-related SAEs, Total Number of Subjects (human, in vivo): 2
treatment-related SAEs, Total Number of events (human, in vivo): 2
RDE (human, in vivo, 28 days): 5 mg QD
Recommended dose for expansion (RDE) (human, in vivo, 28 days): 5 mg QD
kind of DLTs (human, in vivo, 28 days): Grade 3 neutropenia
predicted Vss [1]: ~0.1 L/kg
predicted oral bioavailability [1]: high oral bioavailability
predicted plasma CL [1]: ~6 mL/h/kg
predicted t [1]: approximately 12 h
time to steady state ([2]; 1 mg to 15 mg QD, cut-off 30 Sep. 2022): achieved by Cycle 1 Day 15
Rac (ratio of AUC24 at Cycle 1 Day 15 to AUC24 at Cycle 1 Day 1) ([2]; 5 mg QD oral in combination with fulvestrant, N=4, median (minimum, maximum)): 4.2 (3.2, 5.1)
Rac (ratio of AUC24 at Cycle 1 Day 15 to AUC24 at Cycle 1 Day 1) ([2]; 5 mg QD oral monotherapy, N=4, median (minimum, maximum)): 4.1 (2.9, 5.5)
Rac (ratio of AUC24 at Cycle 1 Day 15 to AUC24 at Cycle 1 Day 1) ([2]; 8 mg QD oral monotherapy, N=7, median (minimum, maximum)): 3.8 (3.1, 5.1)
Rac (ratio of AUC24 at Cycle 1 Day 15 to AUC24 at Cycle 1 Day 1) ([2]; 15 mg QD oral monotherapy, N=6, median (minimum, maximum)): 3.8 (2.3, 4.7)
CL/F (apparent clearance) ([2]; C1D15, 5 mg QD oral in combination with fulvestrant, N=4): 0.10 (26.9) L/hr
CL/F (apparent clearance) ([2]; C1D15, 5 mg QD oral monotherapy, N=4): 0.14 (23.9) L/hr
CL/F (apparent clearance) ([2]; C1D15, 8 mg QD oral monotherapy, N=7): 0.10 (9.7) L/hr
CL/F (apparent clearance) ([2]; C1D15, 15 mg QD oral monotherapy, N=6): 0.12 (43.2) L/hr
drug-drug interaction between COMPOUND A and fulvestrant ([2]; CL/F similar alone and in combination): no apparent drug-drug interaction
linearity of pharmacokinetics ([2]; CL/F similar at each dose level, 2 mg to 15 mg, cut-off 23 Mar. 2022): linear
linearity of PK ([2]; between 1 mg and 15 mg QD dose regimens, cut-off 30 Sep. 2022): linear
COMPOUND A exposure (AUC24) versus dose ([2]; dose range 2 mg to 15 mg, alone or in combination with fulvestrant): increased proportionally when dose was increased
Tmax ([2]; oral, following repeated daily dosing to Day 15, read-out: median Tmax): 3 h
Cmax ([2]; po, 5 mg, C1D1 (after 1st dose), 5 mg QD oral monotherapy, N=4): 508 ng/mL
AUC ([2]; po, 5 mg, C1D1, 5 mg QD oral monotherapy, N=4): 8900 ng·h/mL
Tmax ([2]; po, 5 mg, C1D1, 5 mg QD oral monotherapy, N=4, median (minimum, maximum), read-out: Tmax): 3.5 h
Cmax ([2]; po, 5 mg, C1D15 (steady state), 5 mg QD oral monotherapy, N=4): 1710 ng/mL
AUC ([2]; po, 5 mg, C1D15, 5 mg QD oral monotherapy, N=4): 35900 ng·h/mL
Tmax ([2]; po, 5 mg, C1D15, 5 mg QD oral monotherapy, N=4, median (minimum, maximum), read-out: Tmax): 3 h
Cmax ([2]; po, 8 mg, C1D1 (after 1st dose), 8 mg QD oral monotherapy, N=7): 1050 ng/mL
AUC ([2]; po, 8 mg, C1D1, 8 mg QD oral monotherapy, N=7): 20500 ng·h/mL
Tmax ([2]; po, 8 mg, C1D1, 8 mg QD oral monotherapy, N=7, median (minimum, maximum), read-out: Tmax): 3 h
Cmax ([2]; po, 8 mg, C1D15 (steady state), 8 mg QD oral monotherapy, N=7): 3620 ng/mL
AUC ([2]; po, 8 mg, C1D15, 8 mg QD oral monotherapy, N=7): 76500 ng·h/mL
Tmax ([2]; po, 8 mg, C1D15, 8 mg QD oral monotherapy, N=7, median (minimum, maximum), read-out: Tmax): 3 h
Cmax ([2]; po, 15 mg, C1D1 (after 1st dose), 15 mg QD oral monotherapy, N=6): 1940 ng/mL
AUC ([2]; po, 15 mg, C1D1, 15 mg QD oral monotherapy, N=6): 35700 ng·h/mL
Tmax ([2]; po, 15 mg, C1D1, 15 mg QD oral monotherapy, N=6, median (minimum, maximum), read-out: Tmax): 3.5 h
Cmax ([2]; po, 15 mg, C1D15 (steady state), 15 mg QD oral monotherapy, N=6): 6030 ng/mL
AUC ([2]; po, 15 mg, C1D15, 15 mg QD oral monotherapy, N=6): 127000 ng·h/mL
Tmax ([2]; po, 15 mg, C1D15, 15 mg QD oral monotherapy, N=6, median (minimum, maximum), read-out: Tmax): 3 h
Cmax ([2]; po, C1D1 (after 1st dose), 5 mg QD oral in combination with fulvestrant, N=4): 641 ng/mL
AUC ([2]; po, C1D1, 5 mg QD oral in combination with fulvestrant, N=4): 12100 ng·h/mL
Tmax ([2]; po, C1D1, 5 mg QD oral in combination with fulvestrant, N=4, median (minimum, maximum), read-out: Tmax): 6 h
Cmax ([2]; po, C1D15 (steady state), 5 mg QD oral in combination with fulvestrant, N=4): 2340 ng/mL
AUC ([2]; po, C1D15, 5 mg QD oral in combination with fulvestrant, N=4): 50100 ng·h/mL
Tmax ([2]; po, C1D15, 5 mg QD oral in combination with fulvestrant, N=4, median (minimum, maximum), read-out: Tmax): 6 h
steady-state concentrations relative to Cerf targets (defined from preclinical models) ([2]; when dosed at ≥1 mg): near or above Cerf targets

From patent publication US20260027087A1, “DOSING REGIMENS COMPRISING A KAT6 INHIBITOR FOR THE TREATMENT OF CANCER” (PFIZER INC., priority 2022, published 2026)
